The test system of this test is endotoxin. Description: Protection of mice against lethal endotoxin challenge. It counts as in vivo. Particulars: compared with lipid X as reported in the literature. As to the method:
The lethal dose of E. coli endotoxin was determined both for the intravenous and for the intraperitoneal challenge. […] (It is important to standardize each lot of endotoxin with each lot of mice.) To determine the approximate dose of lipid A derivative needed to protect against a lethal challenge of endotoxin, mice are pretreated with the lipid A derivative intraperitoneally 2 hours before challenge with 1500 μg of endotoxin, which is 3 times the LD100 dose. Pretreatment of mice with the lipid A derivative appeared to prolong the time to death.

As for `CCCCCCC=CCCCCCC(=O)OC(CCCCCCCCCCC)CC(=O)NC1C(OCC2OC(OP(=O)(O)O)C(NC(=O)CC(=O)CCCCCCCCCCC)C(OC(=O)CC(O)CCCCCCC)C2O)OC(CO)C(OP(=O)(O)O)C1OC(=O)CC(O)CCCCCCC` (stereo not shown) [DPLA], the “protection of mice against a lethal dose of endotoxin” value is given as “more effective than lipid X”.

The record behind these values is patent publication US5158939A, “Method of stimulating the immune systems of animals and compositions useful therefor” (priority 1990, dated 1992).
